The source of these data is US9029370B2, “Substituted benzamide derivatives” (Hoffmann-La Roche Inc., priority 2011, dated 2015).

Where a name gives a salt, the structure may show the parent alone.

One assay concerns the target rat TAAR1 (Rattus norvegicus (Rat), UniProt Q923Y9). Description: Radioligand binding assay on rat TAAR1. The settings on record: rat TAAR1, HEK-293 membranes; second value of the pair (line below); read-out: Ki (μM) mouse/rat. A digest of the protocol:
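Membranes from HEK293 cells stably expressing rat TAAR1 were incubated 1 hr at 4 °C with ^3[H]-(S)-4-[(ethyl-phenyl-amino)-methyl]-4,5-dihydro-oxazol-2-ylamine; nonspecific binding was defined with 10 μM unlabeled ligand. Compounds were tested at 10 pM to 10 μM in duplicate. Bound radioactivity was read by filtration and scintillation counting.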

The next assay has as its target mouse TAAR1 (Mus musculus (Mouse), UniProt Q923Y8). Description: Radioligand binding assay on mouse TAAR1. The settings on record: mouse TAAR1, HEK-293 membranes; first value of the pair (before the slash); read-out: Ki (μM) mouse/rat. An outline of the steps: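 Membranes from HEK293 cells stably expressing mouse TAAR1, in HEPES-NaOH pH 7.4 with 0.1 mM EDTA, were incubated 1 h at 4°C with tritiated (S)-4-[(ethyl-phenyl-amino)-methyl]-4,5-dihydro-oxazol-2-ylamine and compound (10 pM–10 μM, duplicates). Nonspecific binding defined with 10 μM unlabeled ligand; bound radioactivity by filtration and scintillation counting.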

Chain of rat TAAR1 (Q923Y9 whole entry): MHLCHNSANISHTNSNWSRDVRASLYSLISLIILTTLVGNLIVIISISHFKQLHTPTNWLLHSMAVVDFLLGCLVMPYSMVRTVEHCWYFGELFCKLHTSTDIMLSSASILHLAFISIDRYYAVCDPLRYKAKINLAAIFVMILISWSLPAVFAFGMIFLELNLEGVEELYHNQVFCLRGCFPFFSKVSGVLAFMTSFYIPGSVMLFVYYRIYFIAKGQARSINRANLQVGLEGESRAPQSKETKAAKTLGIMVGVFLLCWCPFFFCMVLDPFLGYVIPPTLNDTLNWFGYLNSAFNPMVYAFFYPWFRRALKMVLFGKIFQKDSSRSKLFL
Chain of mouse TAAR1 (Q923Y8 whole entry): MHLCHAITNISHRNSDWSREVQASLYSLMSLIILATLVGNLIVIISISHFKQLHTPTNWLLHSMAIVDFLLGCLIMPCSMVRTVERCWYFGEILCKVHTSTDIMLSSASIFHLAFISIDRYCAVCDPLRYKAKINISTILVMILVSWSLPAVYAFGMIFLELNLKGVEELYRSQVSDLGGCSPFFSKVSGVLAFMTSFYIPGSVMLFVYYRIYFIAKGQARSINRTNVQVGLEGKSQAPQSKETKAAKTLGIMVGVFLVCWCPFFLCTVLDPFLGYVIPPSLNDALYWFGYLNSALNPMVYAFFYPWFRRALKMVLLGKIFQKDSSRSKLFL

Take `O=C(Nc1ccc([C@@H]2CNCCO2)c(F)c1)c1cnn(-c2ccc(OC(F)F)cc2)c1` [Example 86, (R)-1-(4-(Difluoromethoxy)phenyl)-N-(3-fluoro-4-(morpholin-2-yl)phenyl)-1H-pyrazole-4-carboxamide hydrochloride]: the figures for the Ki at rat TAAR1 and on mouse TAAR1 were 0.0007 µM and 0.0023 µM, respectively.
For the compound `O=C(Nc1ccc([C@H]2CNCCO2)c(F)c1)c1ccnc(C(F)(F)F)c1` [Example 87, (S)—N-(3-Fluoro-4-(morpholin-2-yl)phenyl)-2-(trifluoromethyl)isonicotinamide hydrochloride], the Ki amounted to 0.0202 µM at rat TAAR1 and 0.0105 µM at mouse TAAR1.
`CCOc1cc(C(=O)Nc2ccc([C@H]3CNCCO3)c(F)c2)ccn1` [Example 88, (S)-2-Ethoxy-N-(3-fluoro-4-(morpholin-2-yl)phenyl)isonicotinamide hydrochloride]: the Ki was found to be 0.0458 µM on rat TAAR1 and 0.0034 µM at mouse TAAR1.
For the compound `CCOc1ccc(C(=O)Nc2ccc([C@H]3CNCCO3)c(F)c2)cn1` [Example 89, (S)-6-Ethoxy-N-(3-fluoro-4-(morpholin-2-yl)phenyl)nicotinamide hydrochloride], the Ki was 0.0254 µM on rat TAAR1 and 0.0024 µM on mouse TAAR1.
`CCOc1cc(C(=O)Nc2ccc([C@@H]3CNCCO3)c(Cl)c2)ccn1` [Example 91, (R)—N-(3-Chloro-4-(morpholin-2-yl)phenyl)-2-ethoxyisonicotinamide hydrochloride]: the Ki came to 0.003 µM on rat TAAR1 and 0.0053 µM at mouse TAAR1.
Turning to `CCOc1ccc(C(=O)Nc2ccc([C@@H]3CNCCO3)c(Cl)c2)cn1` [Example 92, (R)—N-(3-Chloro-4-(morpholin-2-yl)phenyl)-6-ethoxynicotinamide hydrochloride], the Ki came to 0.0045 µM on rat TAAR1 and 0.0048 µM at mouse TAAR1.
As to `O=C(Nc1ccc([C@@H]2CNCCO2)c(Cl)c1)c1cnn(-c2ccc(OC(F)F)cc2)c1` [Example 93, (R)—N-(3-Chloro-4-(morpholin-2-yl)phenyl)-1-(4-(difluoromethoxy)phenyl)-1H-pyrazole-4-carboxamide hydrochloride], the Ki on rat TAAR1 amounted to 0.0012 µM; at mouse TAAR1, 0.0005 µM.
As for `CCOc1cc(C(=O)Nc2ccc([C@H]3CNCCO3)c(Cl)c2)ccn1` [Example 94, (S)—N-(3-Chloro-4-(morpholin-2-yl)phenyl)-2-ethoxyisonicotinamide hydrochloride], the Ki was 0.0381 µM at rat TAAR1 and 0.0033 µM at mouse TAAR1.
On the same counts, the results for `CCOc1ccc(C(=O)Nc2ccc([C@H]3CNCCO3)c(Cl)c2)cn1` [Example 95, (S)—N-(3-Chloro-4-(morpholin-2-yl)phenyl)-6-ethoxynicotinamide hydrochloride] are 0.035 µM and 0.0033 µM.
Regarding `O=C(Nc1ccc([C@H]2CNCCO2)c(Cl)c1)c1cnn(-c2ccc(OC(F)F)cc2)c1` [Example 96, (S)—N-(3-Chloro-4-(morpholin-2-yl)phenyl)-1-(4-(difluoromethoxy)phenyl)-1H-pyrazole-4-carboxamide hydrochloride], the values for the Ki on rat TAAR1 and at mouse TAAR1 were 0.0006 µM and 0.0013 µM, respectively.
In the case of `N#Cc1ccc(-n2cc(C(=O)Nc3ccc([C@H]4CNCCO4)cc3Cl)cn2)cc1` [Example 103, (S)—N-(2-Chloro-4-(morpholin-2-yl)phenyl)-1-(4-cyanophenyl)-1H-pyrazole-4-carboxamide hydrochloride], the Ki on rat TAAR1 turned out to be 0.0031 µM; at mouse TAAR1, 0.0052 µM.
As to `O=C(Nc1ccc([C@H]2CNCCO2)cc1F)c1cn(-c2ccc(OC(F)F)cc2)nn1` [Example 104, (S)-1-(4-(Difluoromethoxy)phenyl)-N-(2-fluoro-4-(morpholin-2-yl)phenyl)-1H-1,2,3-triazole-4-carboxamide], the Ki came to 0.034 µM at rat TAAR1 and 0.0019 µM on mouse TAAR1.
On to `N#Cc1ccc(-n2cc(C(=O)Nc3ccc([C@H]4CNCCO4)c(Cl)c3)cn2)cc1` [Example 105, (S)—N-(3-Chloro-4-(morpholin-2-yl)phenyl)-1-(4-cyanophenyl)-1H-pyrazole-4-carboxamide hydrochloride], for which the Ki on rat TAAR1 amounted to 0.0027 µM; at mouse TAAR1, 0.0032 µM.
Regarding `COc1cc(C(=O)Nc2ccc([C@H]3CNCCO3)c(F)c2)cc(C#N)n1` [Example 107, (S)-2-Cyano-N-(3-fluoro-4-(morpholin-2-yl)phenyl)-6-methoxyisonicotinamide hydrochloride], the figures for the Ki at rat TAAR1 and on mouse TAAR1 were 0.0065 µM and 0.0093 µM, respectively.
For the compound `N#Cc1ccc(-n2cc(C(=O)Nc3ccc([C@H]4CNCCO4)c(F)c3)cn2)c(F)c1` [Example 108, (S)-1-(4-Cyano-2-fluorophenyl)-N-(3-fluoro-4-(morpholin-2-yl)phenyl)-1H-pyrazole-4-carboxamide hydrochloride], the values for the Ki at rat TAAR1 and at mouse TAAR1 were 0.0059 µM and 0.0054 µM, respectively.
`N#Cc1ccc(-n2cc(C(=O)Nc3ccc([C@H]4CNCCO4)c(Cl)c3)cn2)c(F)c1` [Example 109, (S)—N-(3-Chloro-4-(morpholin-2-yl)phenyl)-1-(4-cyano-2-fluorophenyl)-1H-pyrazole-4-carboxamide hydrochloride]: the Ki came to 0.0038 µM on rat TAAR1 and 0.0026 µM on mouse TAAR1.
As to `N#Cc1ccc(-n2cc(C(=O)Nc3ccc([C@H]4CNCCO4)cc3F)cn2)c(F)c1` [Example 110, (S)-1-(4-Cyano-2-fluorophenyl)-N-(2-fluoro-4-(morpholin-2-yl)phenyl)-1H-pyrazole-4-carboxamide hydrochloride], the Ki at rat TAAR1 is 0.0152 µM; on mouse TAAR1, 0.0088 µM.
As to `N#Cc1ccc(-n2cc(C(=O)Nc3ccc([C@H]4CNCCO4)cc3F)cn2)cc1` [Example 111, (S)-1-(4-Cyanophenyl)-N-(2-fluoro-4-(morpholin-2-yl)phenyl)-1H-pyrazole-4-carboxamide hydrochloride], the Ki turned out to be 0.0086 µM on rat TAAR1 and 0.0074 µM on mouse TAAR1.
`Cc1cc(C(=O)Nc2ccc([C@H]3CNCCO3)c(Cl)c2)cc(C#N)n1` [Example 112, (S)—N-(3-Chloro-4-(morpholin-2-yl)phenyl)-2-cyano-6-methylisonicotinamide hydrochloride]: the results for the Ki at rat TAAR1 and on mouse TAAR1 were 0.0248 µM and 0.0259 µM, respectively.
Turning to `Cc1cc(C(=O)Nc2ccc([C@H]3CNCCO3)cc2F)cc(C#N)n1` [Example 113, (S)-2-Cyano-N-(2-fluoro-4-(morpholin-2-yl)phenyl)-6-methylisonicotinamide hydrochloride], the Ki on rat TAAR1 came to 0.0654 µM; on mouse TAAR1 it was 0.0481 µM.
Taken in the same sequence, the figures for `Cc1cc(C(=O)Nc2ccc([C@H]3CNCCO3)c(F)c2)cc(C(N)=O)n1` [Example 114, (S)—N4-(3-Fluoro-4-(morpholin-2-yl)phenyl)-6-methylpyridine-2,4-dicarboxamide hydrochloride] were 0.265 µM and 0.0649 µM.
For `Cc1cc(C(=O)Nc2ccc([C@H]3CNCCO3)c(F)c2)cc(C#N)n1` [Example 115, (S)-2-Cyano-N-(3-fluoro-4-(morpholin-2-yl)phenyl)-6-methylisonicotinamide hydrochloride], the figures for the Ki at rat TAAR1 and at mouse TAAR1 were 0.0343 µM and 0.029 µM, respectively.
On to `NC(=O)c1cc(C(=O)Nc2ccc([C@H]3CNCCO3)c(F)c2)cc(Cl)n1` [Example 116, (S)-6-Chloro-N4-(3-fluoro-4-(morpholin-2-yl)phenyl)pyridine-2,4-dicarboxamide hydrochloride], for which the figures for the Ki at rat TAAR1 and on mouse TAAR1 were 0.162 µM and 0.0512 µM, respectively.
Regarding `CCc1cc(C(=O)Nc2ccc([C@H]3CNCCO3)c(F)c2)cc(C(N)=O)n1` [Example 117, (S)-6-Ethyl-N4-(3-fluoro-4-(morpholin-2-yl)phenyl)pyridine-2,4-dicarboxamide hydrochloride], the Ki was 0.045 µM on rat TAAR1 and 0.0284 µM at mouse TAAR1.
In the case of `Cc1cc(C(=O)Nc2ccc([C@H]3CNCCO3)c(Cl)c2)cc(C(N)=O)n1` [Example 118, (S)—N4-(3-Chloro-4-(morpholin-2-yl)phenyl)-6-methylpyridine-2,4-dicarboxamide hydrochloride], the Ki at rat TAAR1 stood at 0.264 µM; on mouse TAAR1 it was 0.0416 µM.
`Cc1cc(C(=O)Nc2ccc([C@H]3CNCCO3)cc2F)cc(C(N)=O)n1` [Example 119, (S)—N4-(2-Fluoro-4-(morpholin-2-yl)phenyl)-6-methylpyridine-2,4-dicarboxamide hydrochloride]: the Ki on rat TAAR1 turned out to be 0.687 µM; at mouse TAAR1, 0.0844 µM.
Consider `COc1cc(C(=O)Nc2ccc([C@H]3CNCCO3)cc2F)cc(C(N)=O)n1` [Example 120, (S)—N4-(2-Fluoro-4-(morpholin-2-yl)phenyl)-6-methoxypyridine-2,4-dicarboxamide hydrochloride], for which the values for the Ki on rat TAAR1 and at mouse TAAR1 were 0.426 µM and 0.0851 µM, respectively.
For the compound `COc1cc(C(=O)Nc2ccc([C@H]3CNCCO3)cc2F)cc(C#N)n1` [Example 121, (S)-2-Cyano-N-(2-fluoro-4-(morpholin-2-yl)phenyl)-6-methoxyisonicotinamide hydrochloride], the Ki at rat TAAR1 came to 0.0158 µM; on mouse TAAR1, 0.0145 µM.
Consider `Cc1cc(C(=O)Nc2ccc([C@H]3CNCCO3)cc2Cl)cc(C(N)=O)n1` [Example 122, (S)—N4-(2-Chloro-4-(morpholin-2-yl)phenyl)-6-methylpyridine-2,4-dicarboxamide hydrochloride], for which the Ki stood at 0.758 µM at rat TAAR1 and 0.14 µM at mouse TAAR1.
On the same counts, the results for `Cc1cc(C(=O)Nc2ccc([C@H]3CNCCO3)cc2Cl)cc(C#N)n1` [Example 123, (S)—N-(2-Chloro-4-(morpholin-2-yl)phenyl)-2-cyano-6-methylisonicotinamide hydrochloride] are 0.0474 µM and 0.0413 µM.
